Measured values as given in US8148391B2 (Cephalon, Inc., priority 2006, dated 2012).
Structures can show the parent of a compound that is named as a salt. Where two headings read alike, the source gives them in different places. Blank lines part the entries; values can stand above or below the compound they belong to.

Key:
[1] = biological target: T1, c-Met (cytoplasmic domain) (Homo sapiens, UniProt P08581); test: c-Met Kinase Assay (same methods as for ALK, with modifications); type: biochemical
T1 construct: 10 ng/mL c-Met (cytoplasmic domain, Invitrogen Corporation #PV3143); purchased Invitrogen Corporation PV3143
T1 sequence (P08581 956-1390 limits assumed): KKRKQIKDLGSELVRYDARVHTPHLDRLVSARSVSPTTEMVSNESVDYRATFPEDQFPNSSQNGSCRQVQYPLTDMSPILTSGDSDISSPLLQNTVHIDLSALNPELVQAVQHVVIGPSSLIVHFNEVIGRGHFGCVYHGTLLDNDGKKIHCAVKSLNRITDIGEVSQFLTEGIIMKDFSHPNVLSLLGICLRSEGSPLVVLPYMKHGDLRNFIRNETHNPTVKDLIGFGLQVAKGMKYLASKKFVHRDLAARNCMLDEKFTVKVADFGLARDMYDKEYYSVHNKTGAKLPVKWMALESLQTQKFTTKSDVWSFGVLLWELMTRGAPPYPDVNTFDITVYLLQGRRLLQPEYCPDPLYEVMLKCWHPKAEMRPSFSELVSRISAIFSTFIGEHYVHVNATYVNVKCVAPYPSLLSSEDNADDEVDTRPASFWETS
Description: Briefly, each 96-well plate was coated with 100 μL/well of 10 μg/mL substrate (phospholipase C-γ) in Tris-buffered saline (TBS). […] The reaction was initiated by adding enzyme (30 ng/ml ALK) and was allowed to proceed at 37° C. for 15 minutes. Detection of the phosphorylated product was performed by adding 100 μl/well of Eu-N1 labeled PT66 antibody (Perkin Elmer # AD0041).
Data analysis was performed using ActivityBase (IDBS, Guilford, UK). IC50 values were calculated by plotting percent inhibition versus log10 of the concentration of compound and fitting to the nonlinear regression sigmoidal dose-response (variable slope) equation in XLFit (IDBS, Guilford, UK).
Reactions were initiated with 10 ng/mL c-Met (cytoplasmic domain, Invitrogen Corporation #PV3143).

[2] = biological target: T2, baculovirus-expressed ALK (Homo sapiens, UniProt Q9UM73); test: ALK Kinase Assay (ELISA-type, time-resolved fluorescence); type: biochemical
T2 construct: host or cells: baculovirus expression system
T2 sequence (Q9UM73 19-1620): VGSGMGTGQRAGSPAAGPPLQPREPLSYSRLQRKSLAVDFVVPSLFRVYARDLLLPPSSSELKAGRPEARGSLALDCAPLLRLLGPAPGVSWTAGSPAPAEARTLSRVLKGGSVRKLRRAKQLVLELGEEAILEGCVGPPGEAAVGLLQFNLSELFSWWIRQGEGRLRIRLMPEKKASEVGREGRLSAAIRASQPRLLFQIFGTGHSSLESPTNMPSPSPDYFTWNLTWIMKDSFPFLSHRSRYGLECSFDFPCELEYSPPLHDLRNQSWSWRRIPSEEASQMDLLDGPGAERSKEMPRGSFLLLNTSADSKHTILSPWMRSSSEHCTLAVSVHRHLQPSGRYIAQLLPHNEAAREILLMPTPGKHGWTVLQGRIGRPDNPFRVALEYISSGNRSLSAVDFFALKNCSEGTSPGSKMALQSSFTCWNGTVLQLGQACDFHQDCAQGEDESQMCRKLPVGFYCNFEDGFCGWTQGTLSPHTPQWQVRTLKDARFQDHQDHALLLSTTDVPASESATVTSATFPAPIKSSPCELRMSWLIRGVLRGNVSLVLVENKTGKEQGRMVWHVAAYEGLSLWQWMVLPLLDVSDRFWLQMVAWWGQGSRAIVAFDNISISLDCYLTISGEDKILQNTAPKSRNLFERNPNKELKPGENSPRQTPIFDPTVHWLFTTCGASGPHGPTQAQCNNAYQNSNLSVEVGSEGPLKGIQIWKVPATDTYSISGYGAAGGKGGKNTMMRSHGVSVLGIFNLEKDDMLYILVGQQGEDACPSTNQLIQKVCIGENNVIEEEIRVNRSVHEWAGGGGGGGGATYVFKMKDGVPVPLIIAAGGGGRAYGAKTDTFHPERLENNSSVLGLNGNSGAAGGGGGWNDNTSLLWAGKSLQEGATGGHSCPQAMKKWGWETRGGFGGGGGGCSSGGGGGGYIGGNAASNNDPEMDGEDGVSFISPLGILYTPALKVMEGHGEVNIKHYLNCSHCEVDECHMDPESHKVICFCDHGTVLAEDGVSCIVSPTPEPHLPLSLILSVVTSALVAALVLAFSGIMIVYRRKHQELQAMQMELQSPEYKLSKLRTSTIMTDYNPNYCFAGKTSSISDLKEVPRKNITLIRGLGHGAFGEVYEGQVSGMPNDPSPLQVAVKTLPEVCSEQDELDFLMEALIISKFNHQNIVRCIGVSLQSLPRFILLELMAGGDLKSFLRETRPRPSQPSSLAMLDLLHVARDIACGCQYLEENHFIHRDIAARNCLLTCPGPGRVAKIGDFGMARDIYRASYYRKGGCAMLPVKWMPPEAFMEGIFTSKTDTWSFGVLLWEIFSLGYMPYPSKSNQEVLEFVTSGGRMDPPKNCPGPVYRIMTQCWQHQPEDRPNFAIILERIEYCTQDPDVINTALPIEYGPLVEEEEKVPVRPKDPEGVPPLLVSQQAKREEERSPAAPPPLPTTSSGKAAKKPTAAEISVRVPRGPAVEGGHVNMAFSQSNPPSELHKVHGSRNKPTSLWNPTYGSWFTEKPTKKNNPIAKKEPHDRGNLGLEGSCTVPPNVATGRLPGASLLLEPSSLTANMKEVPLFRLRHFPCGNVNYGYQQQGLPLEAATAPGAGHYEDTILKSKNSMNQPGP
Summary of the method: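 Wells were coated with phospholipase C-γ at 10 μg/mL in Tris-buffered saline. Adding 30 ng/ml enzyme started the reaction, which ran at 37° C for 15 minutes before Eu-N1 PT66 antibody detection. Percent inhibition versus log10 concentration gave IC50 by variable-slope fit.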

[3] = c-Met kinase inhibition, 1 μM ATP, read-out: cMet Activity
[4] = ALK kinase inhibition, 1 μM ATP, read-out: ALK Activity
[5] = c-Met kinase inhibition, 1 μM ATP (Km level), read-out: cMet Activity
[6] = ALK kinase inhibition, 1 μM ATP (Km level), read-out: ALK Activity
[7] = 1 μM ATP (Km level), 10 ng/mL c-Met, read-out: cMet Activity (c-Met kinase inhibition, IC50 class)
[8] = 1 μM ATP (Km level), 30 ng/ml ALK, 37° C., 15 minutes, read-out: ALK Activity (ALK kinase inhibition, IC50 class)
[9] = 1 μM ATP (Km level), read-out: cMet Activity (c-Met Kinase Inhibition, IC50)
[10] = 1 μM ATP (Km level), read-out: ALK Activity (ALK Kinase Inhibition, IC50)

IC50 [1, 3]: < 100 nM
IC50 [2, 4]: 100 to 1000 nM
Compound: C#CCNC(=O)c1cc(F)cc(F)c1Nc1nc(Nc2ccc3c(c2)CCN(CCOC)CC3)ncc1Cl [Example 1728, 2-{5-Chloro-2-[3-(2-methoxy-ethyl)-2,3,4,5-tetrahydro-1H-benzo[d]azepin-7-ylamino]-pyrimidin-4-ylamino}-3,5-difluoro-N-prop-2-ynyl-benzamide]

IC50 [1, 5]: 100 to 1000 nM
IC50 [2, 6]: < 100 nM
Compound: CN1CCNCc2cc(Nc3ncc(Cl)c(Nc4ccccc4NS(C)(=O)=O)n3)ccc21 [Example 421, N-{2-[5-Chloro-2-(1-methyl-2,3,4,5-tetrahydro-1H-benzo[e][1,4]diazepin-7-ylamino)-pyrimidin-4-ylamino]-phenyl}-methanesulfonamide]

IC50 [1, 7]: 1000 to 10000 nM
IC50 [2, 8]: < 100 nM
Compound: CCN1C(=O)CCC(C)(C)c2ccc(Nc3ncc(Cl)c(Nc4c(F)cccc4S(=O)(=O)C(C)C)n3)cc21 [Example 1252, 8-{5-Chloro-4-[2-fluoro-6-(propane-2-sulfonyl)-phenylamino]-pyrimidin-2-ylamino}-1-ethyl-5,5-dimethyl-1,3,4,5-tetrahydro-1-benzazepin-2-one]

IC50 [1, 3]: 1000 to 10000 nM
IC50 [2, 4]: < 100 nM
Compound: CN([C@@H]1CCCC[C@H]1Nc1nc(Nc2ccc3c(c2)C(C)(C)CCC(=O)N3)ncc1Cl)S(C)(=O)=O [Example 1674, N-{(1R,2R)-2-[5-Chloro-2-(5,5-dimethyl-2-oxo-2,3,4,5-tetrahydro-1H-benzo[b]azepin-7-ylamino)-pyrimidin-4-ylamino]-cyclohexyl}-N-methyl-methanesulfonamide]

IC50 [1, 9]: > 10000 nM
IC50 [2, 10]: 100 to 1000 nM
Compound: N-((1R,2R)-2-{5-Chloro-2-[7-(2,2,2-trifluoro-ethylamino)-6,7,8,9-tetrahydro-5H-benzocyclohepten-2-ylamino]-pyrimidin-4-ylamino}-cyclohexyl)-methanesulfonamide [Example 688]

IC50 [1, 3]: < 100 nM
IC50 [2, 4]: < 100 nM
Compound: CNC(=O)c1ccccc1Nc1nc(Nc2ccc3c(c2)N(C(C)=O)CCCO3)ncc1Cl [Example 1703, 2-[2-(9-Acetyl-6,7,8,9-tetrahydro-5-oxa-9-aza-benzocyclohepten-2-ylamino)-5-chloro-pyrimidin-4-ylamino]-N-methyl-benzamide]

IC50 [1, 7]: < 100 nM
IC50 [2, 8]: < 100 nM
Compound: COCCN1CCc2ccc(Nc3ncc(Cl)c(Nc4c(F)cccc4C(=O)NCC#N)n3)cc2CC1 [Example 1079, 2-{5-Chloro-2-[3-(2-methoxy-ethyl)-2,3,4,5-tetrahydro-1H-benzo[d]azepin-7-ylamino]-pyrimidin-4-ylamino}-N-cyanomethyl-3-fluoro-benzamide]

IC50 [1, 5]: < 100 nM
IC50 [2, 6]: < 100 nM
Compound: CNC(=O)c1ccccc1Nc1nc(Nc2ccc3c(c2)CNCCN3C)ncc1Cl [Example 420, 2-[5-Chloro-2-(1-methyl-2,3,4,5-tetrahydro-1H-benzo[e][1,4]diazepin-7-ylamino)-pyrimidin-4-ylamino]-N-methylbenzamide]

Compound: CCOC(=O)N1C2CCC1c1c(ccc(Nc3ncc(Cl)c(Nc4ccccc4C(=O)NC)n3)c1Cl)C2 (stereo not shown) [Example 75, 3-Chloro-4-[5-chloro-4-(2-methylcarbamoyl-phenylamino)-pyrimidin-2-ylamino]-12-aza-tricyclo[7.2.1.0*2,7*]dodeca-2(7),3,5-triene-12-carboxylic acid ethyl ester]
IC50 [1, 5]: 1000 to 10000 nM
IC50 [2, 6]: < 100 nM

IC50 [1, 5]: 1000 to 10000 nM
IC50 [2, 6]: < 100 nM
Compound: CN1CCNCc2ccc(Nc3ncc(Cl)c(Nc4ccccc4NS(C)(=O)=O)n3)cc21 [Example 471, N-{2-[5-Chloro-2-(1-methyl-2,3,4,5-tetrahydro-1H-benzo[e][1,4]diazepin-8-ylamino)-pyrimidin-4-ylamino]-phenyl}-methanesulfonamide hydrochloride]

IC50 [1, 5]: 100 to 1000 nM
IC50 [2, 6]: 100 to 1000 nM
Compound: CCN1C(=O)CCC(C)(C)c2cc(Nc3ncc(Cl)c(Nc4c(Cl)cccc4C(=O)NC)n3)ccc21 [Example 389, 3-Chloro-2-[5-chloro-2-(1-ethyl-5,5-dimethyl-2-oxo-2,3,4,5-tetrahydro-1H-benzo[b]azepin-7-ylamino)-pyrimidin-4-ylamino]-N-methyl-benzamide]

IC50 [1, 3]: < 100 nM
IC50 [2, 4]: < 100 nM
Compound: 2-[5-Chloro-2-(2-methyl-3-oxo-2,3,4,5-tetrahydro-1H-benzo[c]azepin-8-ylamino)-pyrimidin-4-ylamino]-N-methyl-benzamide and 2-[5-chloro-2-(2-methyl-3-oxo-2,3-dihydro-1H-benzo[c]azepin-8-ylamino)-pyrimidin-4-ylamino]-N-methyl-benzamide [Example 1798]

IC50 [1, 3]: < 100 nM
IC50 [2, 4]: < 100 nM
Compound: CCN1C(=O)CCC(C)(C)c2ccc(Nc3ncc(Cl)c(N[C@H]4[C@@H](C(N)=O)[C@@H]5C=C[C@H]4C5)n3)cc21 [Example 1586, (1S,2S,3R,4R)-3-[5-Chloro-2-(1-ethyl-5,5-dimethyl-2-oxo-2,3,4,5-tetrahydro-1H-benzo[b]azepin-8-ylamino)-pyrimidin-4-ylamino]-bicyclo[2.2.1]hept-5-ene-2-carboxylic acid amide]

IC50 [1, 3]: > 10000 nM
IC50 [2, 4]: < 100 nM
Compound: COCCOC(=O)c1ccccc1Nc1nc(Nc2cc3c(cc2OC)CCN(CCO)CC3)ncc1Cl [Example 1549, 2-{5-Chloro-2-[3-(2-hydroxy-ethyl)-8-methoxy-2,3,4,5-tetrahydro-1H-3-benzazepin-7-ylamino]-pyrimidin-4-ylamino}-benzoic acid 2-methoxy-ethyl ester]

IC50 [1, 5]: < 100 nM
IC50 [2, 6]: < 100 nM
Compound: CNC(=O)c1ccccc1Nc1nc(Nc2ccc3c(c2)CCCC(=O)N3C)ncc1Br [Example 197, 2-[5-Bromo-2-(1-methyl-2-oxo-2,3,4,5-tetrahydro-1H-benzo[b]azepin-7-ylamino)-pyrimidin-4-ylamino]-N-methyl-benzamide]

IC50 [1, 9]: < 100 nM
IC50 [2, 10]: < 100 nM
Compound: NC(=O)[C@@H]1[C@H](Nc2nc(Nc3ccc4c(c3)CCC(N3CCOCC3)CC4)ncc2C(F)(F)F)[C@H]2C=C[C@@H]1C2 (stereo partly drawn) [Example 935, (1S,2S,3R,4R)-3-[2-(7-Morpholin-4-yl-6,7,8,9-tetrahydro-5H-benzocyclohepten-2-ylamino)-5-trifluoromethyl-pyrimidin-4-ylamino]-bicyclo[2.2.1]hept-5-ene-2-carboxylic acid amide]

IC50 [1, 9]: > 10000 nM
IC50 [2, 10]: < 100 nM
Compound: COc1c(Nc2ncc(Cl)c(Nc3ccccc3S(=O)(=O)N(C)C)n2)ccc2c1CCC(NCC(F)F)CC2 (stereo not shown) [Example 683, 2-{5-Chloro-2-[7-(2,2-difluoro-ethylamino)-1-methoxy-6,7,8,9-tetrahydro-5H-benzocyclohepten-2-ylamino]-pyrimidin-4-ylamino}-N,N-dimethyl-benzenesulfonamide]

IC50 [1, 3]: < 100 nM
IC50 [2, 4]: 1000 to 10000 nM
Compound: CNC(=O)c1cc(F)cc(Cl)c1Nc1nc(Nc2ccc3c(c2)CCOC(=O)N3C)ncc1Cl [Example 1758, 3-Chloro-2-[5-chloro-2-(5-methyl-6-oxo-5,6,8,9-tetrahydro-7-oxa-5-aza-benzocyclohepten-2-ylamino)-pyrimidin-4-ylamino]-5-fluoro-N-methyl-benzamide]

IC50 [1, 3]: 100 to 1000 nM
IC50 [2, 4]: 1000 to 10000 nM
Compound: C#CCNC(=O)c1cc(F)cc(F)c1Nc1nc(Nc2ccc3c(c2)NC(=O)CCC3)ncc1Cl [Example 1729, 2-[5-Chloro-2-(2-oxo-2,3,4,5-tetrahydro-1H-benzo[b]azepin-8-ylamino)-pyrimidin-4-ylamino]-3,5-difluoro-N-prop-2-ynyl-benzamide]

IC50 [1, 9]: > 10000 nM
IC50 [2, 10]: < 100 nM
Compound: COc1cc2c(cc1Nc1ncc(F)c(Nc3ccc(N4CCOCC4)cc3OC)n1)CCN(CC(=O)N(C)C)CC2 [Example 808, 2-{7-[5-Fluoro-4-(2-methoxy-4-morpholin-4-yl-phenylamino)-pyrimidin-2-ylamino]-8-methoxy-1,2,4,5-tetrahydro-benzo[d]azepin-3-yl}-N,N-dimethyl-acetamide]

IC50 [1, 3]: < 100 nM
IC50 [2, 4]: < 100 nM
Compound: CNC(=O)c1cccc(F)c1Nc1nc(Nc2ccc3c(c2)-c2nccn2CCC3)ncc1Cl [Example 1844, 2-[5-Chloro-2-(5,6-dihydro-4H-1,3a-diaza-benzo[e]azulen-9-ylamino)-pyrimidin-4-ylamino]-3-fluoro-N-methyl-benzamide]

IC50 [1, 3]: < 100 nM
IC50 [2, 4]: 1000 to 10000 nM
Compound: CNC(=O)c1cccc(F)c1Nc1nc(Nc2ccc3c(c2)CN(C)C(=O)CC3)ncc1Cl [Example 1806, 3-Fluoro-2-[5-chloro-2-(2-methyl-3-oxo-2,3,4,5-tetrahydro-1H-benzo[c]azepin-8-ylamino)-pyrimidin-4-ylamino]-N-methyl-benzamide]

IC50 [1, 3]: < 100 nM
IC50 [2, 4]: 100 to 1000 nM
Compound: CCN1C(=O)CN(C(C)=O)Cc2ccc(Nc3ncc(Cl)c(Nc4c(Cl)cccc4C(=O)NC)n3)cc21 [Example 1854, 2-[2-(4-Acetyl-1-ethyl-2-oxo-2,3,4,5-tetrahydro-1H-benzo[e][1,4]diazepin-8-ylamino)-5-chloro-pyrimidin-4-ylamino]-3-chloro-N-methyl-benzamide]
